Key:
[1] = Concentration required to reduce ethidium bromide fluorescence to 50% of control in presence of calf thymus DNA
[2] = Differential cytotoxicity was determined from the ratio between BR1(IC50) and xrs-6 (IC50); type: functional
[3] = Tested for the cytotoxicity against the repair deficient xrs-6 chinese hamster ovary cell line; type: functional, cell-based; settings: Cricetulus griseus
[4] = tested on: HCT-116; assay: Tested for the cytotoxicity to inhibit replication assay against the human colon tumor cell line HCT116; type: functional, cell-based
[5] = target: DNA topoisomerase II (Homo sapiens) (UniProt P11388+Q02880); assay: Effect of dose dependent inhibition of TOPO II-catalyzed kDNA decatenation in vitro; settings: Crithidia fasciculata

SMILES	Concentration for 50% ethidium displacement (C50) [1] [µM]	Ratio [2]	IC50 [3] [µM]	IC50 [4] [µM]	IC90 [5] [µM]
CC(C)=CC(=O)NCCc1c2c3c(ccnc3c3ncsc13)-c1ccccc1N2	> 100	1	80	8.3	
CC(C)=CC(=O)NCCc1c2c(c3nccc4c3c1Nc1ccccc1-4)NC(=O)CS2	> 100	1	8.1	16.3	
CC(=O)NCCC1=CC(=O)c2nccc3c2c1nc1ccccc13	54	1	136	1.6	8.4
COc1cc(NS(C)(=O)=O)ccc1Nc1c2ccccc2nc2ccccc12 [AMSACRINE]		4	0.24	6.3	33
CSC1=C(CCNC(C)=O)c2nc3ccccc3c3ccnc(c23)C1=O [DIPLAMINE]	21	1	71.2	< 1.4	9.2
c1ccc2c(c1)nc1c3nc4ccccc4c4ccnc(c5nccc2c51)c43 [EILATIN]	> 100			5.3	
COc1cc([C@@H]2c3cc4c(cc3[C@@H](O[C@@H]3O[C@@H]5CO[C@@H](C)O[C@H]5[C@H](O)[C@H]3O)[C@H]3COC(=O)[C@H]23)OCO4)cc(OC)c1O [ETOPOSIDE]		7	0.14	2.5	68
CC(=O)NCCc1c2c3c(ccnc3c3ncsc13)-c1ccccc1N2 [KUANONIAMINE D]	62	2	88.9	7.8	
O=C1c2c(O)ccc(O)c2C(=O)c2c(NCCNCCO)ccc(NCCNCCO)c21 [MITOXANTRONE]		9	0.001		
CC(=O)NCCc1c2c(c3nccc4c3c1Nc1ccccc1-4)NC(=O)CS2 [SHERMILAMINE B]	> 100	1	14.9	13.8	
